From ChEMBL document CHEMBL1131962, “A new class of selective and potent inhibitors of neuronal nitric oxide synthase” (Bioorg Med Chem Lett, 1999)

Key:
[1] = Maximum concentration in CSF at 30 min following 24 mg/kg subcutaneous dose in rats; assay type: ADME, organism-based, Cerebrospinal fluid; design: dose 24 mg/kg, route subcutaneous; conditions: rat, sc
D(2) dopamine receptor [2] = molecular target: T1, D(2) dopamine receptor (Homo sapiens, UniProt P14416); assay: Binding affinity of compound to Dopamine receptor D2
T1 sequence (P14416 whole entry): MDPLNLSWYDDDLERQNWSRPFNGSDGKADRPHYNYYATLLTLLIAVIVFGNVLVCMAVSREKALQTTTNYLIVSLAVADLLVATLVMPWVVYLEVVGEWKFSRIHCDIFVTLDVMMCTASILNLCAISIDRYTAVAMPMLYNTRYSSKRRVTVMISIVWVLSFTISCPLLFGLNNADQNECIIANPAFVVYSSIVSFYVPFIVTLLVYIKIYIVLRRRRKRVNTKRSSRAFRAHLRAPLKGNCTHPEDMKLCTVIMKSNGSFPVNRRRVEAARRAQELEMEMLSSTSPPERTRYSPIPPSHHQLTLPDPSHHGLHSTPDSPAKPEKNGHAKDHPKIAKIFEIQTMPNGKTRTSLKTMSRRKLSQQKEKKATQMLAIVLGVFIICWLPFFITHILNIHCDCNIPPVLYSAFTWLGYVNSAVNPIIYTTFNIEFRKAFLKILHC

[3] = Half life in rats; assay type: ADME, organism-based; conditions: rat, in vivo
[4] = Maximum concentration in whole brain at 30 min following 24 mg/kg subcutaneous dose in rats; assay type: ADME, organism-based; design: dose 24 mg/kg, route subcutaneous; conditions: rat, sc
[5] = molecular target: T2, Muscarinic acetylcholine receptor M2 (Homo sapiens, UniProt P08172); assay: Binding affinity of compound to m2 muscarinic receptor
T2 sequence (P08172 whole entry): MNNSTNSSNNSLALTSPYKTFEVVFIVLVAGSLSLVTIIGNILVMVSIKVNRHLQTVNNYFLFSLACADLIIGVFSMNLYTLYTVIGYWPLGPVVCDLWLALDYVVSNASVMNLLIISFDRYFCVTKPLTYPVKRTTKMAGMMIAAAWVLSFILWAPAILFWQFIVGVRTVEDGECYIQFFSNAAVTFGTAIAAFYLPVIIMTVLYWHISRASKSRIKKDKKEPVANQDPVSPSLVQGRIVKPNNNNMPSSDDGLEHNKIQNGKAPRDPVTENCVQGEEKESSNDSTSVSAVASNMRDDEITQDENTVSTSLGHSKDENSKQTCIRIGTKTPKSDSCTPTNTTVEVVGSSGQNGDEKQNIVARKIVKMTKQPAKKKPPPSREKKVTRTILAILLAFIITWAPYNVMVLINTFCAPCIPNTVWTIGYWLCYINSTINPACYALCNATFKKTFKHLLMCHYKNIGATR

Nitric oxide synthase 1 [6] = molecular target: Nitric oxide synthase 1 (Rattus norvegicus, UniProt P29476); assay: Inhibitory activity against rat neuronal nitric oxide synthase (nNOS)
Nitric oxide synthase 1 (Rattus norvegicus, UniProt P29476), sequence (P29476 whole entry): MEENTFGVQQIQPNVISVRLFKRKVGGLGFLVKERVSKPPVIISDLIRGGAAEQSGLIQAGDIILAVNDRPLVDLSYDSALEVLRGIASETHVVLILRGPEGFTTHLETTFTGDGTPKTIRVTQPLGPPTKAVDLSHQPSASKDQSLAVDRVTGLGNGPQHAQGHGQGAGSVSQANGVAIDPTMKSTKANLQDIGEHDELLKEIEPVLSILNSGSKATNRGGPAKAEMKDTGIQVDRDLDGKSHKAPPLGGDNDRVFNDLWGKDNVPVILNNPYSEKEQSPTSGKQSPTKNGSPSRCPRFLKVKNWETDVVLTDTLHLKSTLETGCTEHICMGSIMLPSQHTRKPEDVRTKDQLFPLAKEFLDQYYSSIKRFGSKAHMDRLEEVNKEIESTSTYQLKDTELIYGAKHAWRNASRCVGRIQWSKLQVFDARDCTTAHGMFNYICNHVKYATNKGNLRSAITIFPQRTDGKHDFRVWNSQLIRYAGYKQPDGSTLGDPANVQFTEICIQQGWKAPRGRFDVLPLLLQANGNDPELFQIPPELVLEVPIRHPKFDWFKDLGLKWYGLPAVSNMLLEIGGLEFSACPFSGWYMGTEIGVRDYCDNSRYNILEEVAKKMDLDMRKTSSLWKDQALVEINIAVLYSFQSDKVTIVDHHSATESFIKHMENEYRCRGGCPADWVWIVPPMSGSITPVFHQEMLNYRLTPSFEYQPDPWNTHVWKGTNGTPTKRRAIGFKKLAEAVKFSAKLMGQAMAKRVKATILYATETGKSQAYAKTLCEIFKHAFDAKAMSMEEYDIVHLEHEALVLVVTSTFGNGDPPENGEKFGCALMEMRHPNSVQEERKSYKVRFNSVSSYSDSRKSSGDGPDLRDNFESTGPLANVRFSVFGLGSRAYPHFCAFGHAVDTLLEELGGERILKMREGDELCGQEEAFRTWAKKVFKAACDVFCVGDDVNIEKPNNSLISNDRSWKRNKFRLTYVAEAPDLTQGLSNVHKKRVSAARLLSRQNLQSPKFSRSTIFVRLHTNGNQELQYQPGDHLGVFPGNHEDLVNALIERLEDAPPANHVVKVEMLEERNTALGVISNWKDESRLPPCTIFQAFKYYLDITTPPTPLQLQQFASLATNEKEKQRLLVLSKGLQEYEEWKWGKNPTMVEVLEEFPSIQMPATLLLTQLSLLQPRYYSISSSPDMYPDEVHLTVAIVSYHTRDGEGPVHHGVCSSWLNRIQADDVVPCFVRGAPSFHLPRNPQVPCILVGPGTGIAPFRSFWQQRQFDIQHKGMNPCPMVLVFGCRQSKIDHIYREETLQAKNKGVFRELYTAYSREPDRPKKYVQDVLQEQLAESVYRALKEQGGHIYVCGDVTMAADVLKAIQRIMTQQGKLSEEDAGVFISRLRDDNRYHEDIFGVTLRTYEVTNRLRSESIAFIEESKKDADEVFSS

[7] = Maximum concentration in plasma at 30 min following 24 mg/kg subcutaneous dose in rats; assay type: ADME, organism-based; design: dose 24 mg/kg, route subcutaneous; conditions: rat, sc
[8] = molecular target: T3, Muscarinic acetylcholine receptor M4 (Homo sapiens, UniProt P08173); assay: Binding ability of compound to m4 muscarinic receptor
T3 sequence (P08173 whole entry): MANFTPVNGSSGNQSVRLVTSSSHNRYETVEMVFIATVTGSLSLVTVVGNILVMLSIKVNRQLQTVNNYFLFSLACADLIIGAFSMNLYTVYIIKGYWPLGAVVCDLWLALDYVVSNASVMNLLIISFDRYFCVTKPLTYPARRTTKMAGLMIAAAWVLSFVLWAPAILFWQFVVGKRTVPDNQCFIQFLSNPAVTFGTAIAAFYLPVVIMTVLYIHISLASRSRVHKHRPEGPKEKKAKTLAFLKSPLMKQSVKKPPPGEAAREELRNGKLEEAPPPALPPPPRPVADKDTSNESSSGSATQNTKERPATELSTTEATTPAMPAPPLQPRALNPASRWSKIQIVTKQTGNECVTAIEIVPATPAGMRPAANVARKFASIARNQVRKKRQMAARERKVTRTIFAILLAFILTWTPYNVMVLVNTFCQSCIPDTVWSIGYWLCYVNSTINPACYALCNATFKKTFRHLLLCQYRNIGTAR

Nitric oxide synthase 3 = molecular target: T4, Nitric oxide synthase 3 (Homo sapiens, UniProt P29474); assay: Inhibitory activity against human endothelial nitric oxide synthase (eNOS)
T4 sequence (P29474 whole entry): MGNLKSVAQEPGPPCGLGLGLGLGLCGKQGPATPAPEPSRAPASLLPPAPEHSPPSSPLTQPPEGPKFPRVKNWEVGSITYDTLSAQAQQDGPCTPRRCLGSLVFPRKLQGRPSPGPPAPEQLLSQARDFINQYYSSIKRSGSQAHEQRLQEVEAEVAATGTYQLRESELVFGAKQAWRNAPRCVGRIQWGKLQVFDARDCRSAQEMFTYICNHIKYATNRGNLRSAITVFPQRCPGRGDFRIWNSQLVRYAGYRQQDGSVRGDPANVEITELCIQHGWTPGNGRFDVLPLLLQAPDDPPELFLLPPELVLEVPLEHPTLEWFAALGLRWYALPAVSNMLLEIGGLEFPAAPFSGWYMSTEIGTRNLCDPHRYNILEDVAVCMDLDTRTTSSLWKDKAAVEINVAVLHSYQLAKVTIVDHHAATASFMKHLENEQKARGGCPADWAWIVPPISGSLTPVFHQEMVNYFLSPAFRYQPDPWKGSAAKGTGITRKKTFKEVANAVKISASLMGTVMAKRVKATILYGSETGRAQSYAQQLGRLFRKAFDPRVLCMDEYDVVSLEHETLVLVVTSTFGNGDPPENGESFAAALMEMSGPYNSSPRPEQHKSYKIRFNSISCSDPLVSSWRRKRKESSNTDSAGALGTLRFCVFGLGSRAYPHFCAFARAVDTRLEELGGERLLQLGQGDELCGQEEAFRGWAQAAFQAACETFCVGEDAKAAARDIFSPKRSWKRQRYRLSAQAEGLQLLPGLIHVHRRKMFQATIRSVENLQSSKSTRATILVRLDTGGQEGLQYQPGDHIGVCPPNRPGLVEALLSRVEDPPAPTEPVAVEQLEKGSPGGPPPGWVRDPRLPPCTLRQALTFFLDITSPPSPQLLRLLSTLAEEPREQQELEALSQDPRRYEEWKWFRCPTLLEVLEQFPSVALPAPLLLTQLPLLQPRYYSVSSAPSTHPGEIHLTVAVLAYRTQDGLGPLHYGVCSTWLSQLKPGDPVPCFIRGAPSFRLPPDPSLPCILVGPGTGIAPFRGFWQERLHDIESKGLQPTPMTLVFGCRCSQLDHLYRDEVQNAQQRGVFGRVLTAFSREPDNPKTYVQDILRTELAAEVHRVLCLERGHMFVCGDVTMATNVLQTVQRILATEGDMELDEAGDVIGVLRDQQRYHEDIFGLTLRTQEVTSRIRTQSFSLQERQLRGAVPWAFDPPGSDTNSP

Nitric oxide synthase 1 [9] = molecular target: Nitric oxide synthase 1 (Homo sapiens, UniProt P29475); assay: Inhibitory activity against human neuronal nitric oxide synthase (nNOS)
Nitric oxide synthase 1 (Homo sapiens, UniProt P29475), sequence (P29475 whole entry): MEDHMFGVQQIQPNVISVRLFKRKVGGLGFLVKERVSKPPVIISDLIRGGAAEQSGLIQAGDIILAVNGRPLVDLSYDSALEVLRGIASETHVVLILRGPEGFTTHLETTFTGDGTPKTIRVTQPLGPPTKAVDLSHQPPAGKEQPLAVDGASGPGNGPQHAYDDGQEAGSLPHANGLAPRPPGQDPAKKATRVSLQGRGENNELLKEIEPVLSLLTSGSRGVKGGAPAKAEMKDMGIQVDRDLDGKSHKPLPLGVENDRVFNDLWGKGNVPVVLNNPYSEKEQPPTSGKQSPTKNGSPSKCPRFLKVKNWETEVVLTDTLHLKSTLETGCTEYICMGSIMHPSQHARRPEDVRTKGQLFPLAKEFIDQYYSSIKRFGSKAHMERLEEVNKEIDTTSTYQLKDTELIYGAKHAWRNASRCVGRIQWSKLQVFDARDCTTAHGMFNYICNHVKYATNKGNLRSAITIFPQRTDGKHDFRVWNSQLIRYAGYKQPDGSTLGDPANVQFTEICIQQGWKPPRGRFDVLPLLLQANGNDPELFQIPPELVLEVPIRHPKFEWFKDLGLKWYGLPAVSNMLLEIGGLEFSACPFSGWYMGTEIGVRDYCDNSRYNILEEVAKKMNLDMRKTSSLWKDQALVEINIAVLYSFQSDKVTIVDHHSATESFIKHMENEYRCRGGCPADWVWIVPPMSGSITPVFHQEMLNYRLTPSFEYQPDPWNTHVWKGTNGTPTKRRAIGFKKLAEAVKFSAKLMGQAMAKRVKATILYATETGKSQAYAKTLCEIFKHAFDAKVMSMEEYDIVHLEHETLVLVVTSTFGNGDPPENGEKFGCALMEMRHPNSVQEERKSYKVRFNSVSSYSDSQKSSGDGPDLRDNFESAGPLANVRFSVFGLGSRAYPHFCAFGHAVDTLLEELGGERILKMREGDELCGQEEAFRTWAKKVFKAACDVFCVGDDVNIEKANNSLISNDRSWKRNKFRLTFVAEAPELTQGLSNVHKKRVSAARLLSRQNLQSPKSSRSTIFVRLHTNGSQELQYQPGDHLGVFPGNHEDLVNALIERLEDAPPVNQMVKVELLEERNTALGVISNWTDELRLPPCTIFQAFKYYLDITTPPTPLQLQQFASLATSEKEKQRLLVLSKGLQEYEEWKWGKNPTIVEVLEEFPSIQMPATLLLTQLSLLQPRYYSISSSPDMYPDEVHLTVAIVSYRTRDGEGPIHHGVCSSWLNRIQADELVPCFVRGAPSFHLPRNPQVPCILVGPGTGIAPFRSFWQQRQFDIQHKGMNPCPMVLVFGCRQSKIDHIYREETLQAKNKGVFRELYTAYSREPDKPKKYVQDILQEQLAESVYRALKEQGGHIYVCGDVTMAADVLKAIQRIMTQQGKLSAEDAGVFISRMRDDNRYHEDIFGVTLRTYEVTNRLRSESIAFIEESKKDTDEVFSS

[10] = molecular target: T5, 5-hydroxytryptamine receptor 1A (Homo sapiens, UniProt P08908); assay: Binding affinity of compound to human 5-hydroxytryptamine 1A receptor
T5 sequence (P08908 whole entry): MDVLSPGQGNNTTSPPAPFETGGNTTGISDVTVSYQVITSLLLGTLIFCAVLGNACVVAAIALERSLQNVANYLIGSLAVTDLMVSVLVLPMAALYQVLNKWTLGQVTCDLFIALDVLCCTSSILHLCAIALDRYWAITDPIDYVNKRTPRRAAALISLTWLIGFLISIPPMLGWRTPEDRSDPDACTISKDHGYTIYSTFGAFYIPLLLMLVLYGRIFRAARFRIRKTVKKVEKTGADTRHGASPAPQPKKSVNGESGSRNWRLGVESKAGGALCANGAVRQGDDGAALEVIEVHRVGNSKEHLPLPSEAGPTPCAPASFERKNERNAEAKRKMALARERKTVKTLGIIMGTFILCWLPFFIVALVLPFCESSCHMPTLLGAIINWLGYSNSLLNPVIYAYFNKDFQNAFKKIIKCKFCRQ

[11] = molecular target: 5-hydroxytryptamine receptor 2A (Homo sapiens, UniProt P28223); assay: Binding affinity of compound to human 5-hydroxytryptamine 2A receptor
5-hydroxytryptamine receptor 2A, sequence (P28223 whole entry): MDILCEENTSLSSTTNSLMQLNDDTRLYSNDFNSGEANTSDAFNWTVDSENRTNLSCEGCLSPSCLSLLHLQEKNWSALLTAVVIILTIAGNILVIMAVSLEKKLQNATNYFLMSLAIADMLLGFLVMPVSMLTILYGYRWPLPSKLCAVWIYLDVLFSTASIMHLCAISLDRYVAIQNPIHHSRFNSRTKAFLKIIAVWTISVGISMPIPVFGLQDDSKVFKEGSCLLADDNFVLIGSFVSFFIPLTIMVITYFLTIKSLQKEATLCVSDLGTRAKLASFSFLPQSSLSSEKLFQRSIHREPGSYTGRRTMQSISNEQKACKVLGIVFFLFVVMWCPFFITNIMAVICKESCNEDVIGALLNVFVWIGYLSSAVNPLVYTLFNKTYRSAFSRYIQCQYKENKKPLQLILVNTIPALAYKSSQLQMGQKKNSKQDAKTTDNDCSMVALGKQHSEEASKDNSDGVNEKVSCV

D(2) dopamine receptor [12] = molecular target: T1, D(2) dopamine receptor; assay: Binding ability of compound to human Dopamine receptor D2

| SMILES | IC50 (Nitric oxide synthase 1 [6]) [nM] | IC50 (Nitric oxide synthase 3) [nM] | IC50 (Nitric oxide synthase 1 [9]) [nM] | further results |
| --- | --- | --- | --- | --- |
| Nc1cccc(-c2ccc(CCN3CCN(CC(=O)c4ccccc4)CC3)cc2)n1 | 127 | 887 | 140 | Cmax [1]: 450 ng/mL; IC50 (D(2) dopamine receptor [2]): > 10000 nM; half-life [3]: 3.6 h; Cmax [4]: 11000 ng/mL; Ki [5]: 320 nM; Cmax [7]: 1700 ng/mL; Ki [8]: 590 nM |
| CC(C)CN1CCN(CCc2ccc(-c3cccc(N)n3)cc2)CC1 | 193 | 372 | 350 |  |
| CC(C)NC(=O)CN1CCN(CCc2ccc(-c3cccc(N)n3)cc2)CC1 | 256 | 815 | 330 |  |
| Nc1cccc(-c2ccc(CCN3CCN(c4cccc5cccnc45)CC3)cc2)n1 | 130 | 825 | 212 | Ki [10]: 3 nM; Ki [11]: 14 nM; Ki (D(2) dopamine receptor [12]): 11 nM |
| Nc1cccc(-c2ccc(CCN3CCN(CCc4ccccc4)CC3)cc2)n1 | 247 | 448 | 264 |  |
| Nc1cccc(-c2ccc(CCN3CCN(C(=O)Cc4ccccc4)CC3)cc2)n1 | 108 | 685 | 137 |  |
| O=[N+]([O-])c1cccc2cn[nH]c12 [7-NITROINDAZOLE] |  |  | 2870 |  |
